Assay results reported in PMC3498832, “Mechanistic and structural basis for inhibition of thymidylate synthase ThyX” (Open Biology, 2012).
Like-named read-outs stand apart in the source and are kept apart here. Marks after values point to notes of the source that are not given here.

Columns and labels:
[1] = target: T1, PBCV-1 ThyX (Paramecium bursaria Chlorella virus 1, UniProt O41156); parameters: method as in PMID 15471872; conditions: cited from earlier work
T1 construct: made in house; host or cells: E. coli BL21
T1 sequence (O41156 whole entry): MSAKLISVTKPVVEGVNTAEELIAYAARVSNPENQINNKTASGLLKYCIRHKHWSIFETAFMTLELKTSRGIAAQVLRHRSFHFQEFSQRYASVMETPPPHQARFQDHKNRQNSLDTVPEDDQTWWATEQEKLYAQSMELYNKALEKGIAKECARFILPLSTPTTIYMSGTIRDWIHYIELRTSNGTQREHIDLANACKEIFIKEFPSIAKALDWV

[2] = target: T1, PBCV-1 ThyX; test: ThyX assay under anaerobic conditions (NADPH oxidation at 340 nm, FAD reduction at 450 nm); type: biochemical, Paramecium bursaria chlorella virus (PBCV-1); conditions: 100 μM dUMP or inhibitor, 400 μM NADPH, 77 μM ThyX bound FAD
Procedure: ThyX assays (100 μl) under anaerobic conditions contained 77 μM of PBCV-1 ThyX bound FAD in 300 mM NaCl, 1 mM MgCl2, 10 per cent glycerol (m/v) and 50 mM HEPES, pH 8.0. Samples were made anaerobic by repeatedly degassing with argon. Traces of oxygen were removed using the glucose oxidase system (60 units of glucose oxidase and catalase in the presence of 10 mM glucose). Where indicated, 100 μM dUMP, 100 μM inhibitor C8-C1 and 400 μM NADPH were added using an air-tight syringe. NADPH oxidation and FAD reduction were followed spectroscopically (optical path length 1 mm) at 340 and 450 nm, respectively.

[3] = tested on: Thermotoga maritima ThyX; conditions: T. maritima ThyX; no reference given; cited from earlier work
[4] = target: T1, PBCV-1 ThyX; test: 'deprotonation' activity (tritium release assay from [5-3H]dUMP); type: biochemical, Paramecium bursaria chlorella virus (PBCV-1); conditions: compound 20 µM
[5] = target: T1, PBCV-1 ThyX; test: NADPH oxidation assay of ThyX activity (decrease of A340); type: biochemical, Paramecium bursaria chlorella virus (PBCV-1)
[6] = target: T1, PBCV-1 ThyX; test: C8-C1 induced quenching of FAD fluorescence; type: binding; conditions: authors' unpublished data
Procedure: We stress that the total PBCV-1 ThyX concentration used in these assays was 10 μM.

[7] = tested on: E. coli FE010 carrying plasmid overexpressing PBCV-1 thyX; test: Growth inhibition with IPTG-induced overexpression of PBCV-1 ThyX (selectivity factor, ratio of CFUs)
Procedure: Escherichia coli MG1655 (wild-type, thyA^+ tdk^+) and FE010 [ΔthyA::PBCV-1 thyX tdk^+] [26] were grown at 37°C either in thymidine-containing LB medium or thymidine-free M9 minimal medium supplemented with 0.1 mM CaCl2, 2 mM MgSO4 and 0.2 per cent casamino acids (Difco). IPTG-induced overexpression of target protein PBCV-1 ThyX was used to test titration of inhibitor in the bacterial cell. When necessary, thymidine (40 µg ml^−1) and kanamycin (40 µg ml^−1) were added to the growth medium. The cells were then harvested and washed two times with M9 medium to remove the remaining thymidine. The cells were diluted to an OD600 of approximately 0.1 using M9 medium and 1 ml of cell suspension was transferred to 24-well microplates (Nunc). Compounds were dissolved in DMSO and were added at indicated concentrations. No cells and DMSO-only controls were included for each medium composition. The plates were closed with plastic lids and incubated at 37°C with shaking at 160 r.p.m. […] Colony-forming units (CFU) per millilitre for each growth condition were determined from three independent experiments.
The values reported are means of three individual experiments. Hundred per cent refers to cell viability, measured as CFU, in the absence of inhibitor. […]

[8] = tested on: E. coli FE010 (ΔthyA::PBCV-1 thyX tdk+); test: Growth inhibition (CFU) of genetically modified E. coli dependent on thyX
Procedure: (§1) Escherichia coli MG1655 (wild-type, thyA^+ tdk^+) and FE010 [ΔthyA::PBCV-1 thyX tdk^+] [26] were grown at 37°C either in thymidine-containing LB medium or thymidine-free M9 minimal medium supplemented with 0.1 mM CaCl2, 2 mM MgSO4 and 0.2 per cent casamino acids (Difco). IPTG-induced overexpression of target protein PBCV-1 ThyX was used to test titration of inhibitor in the bacterial cell. When necessary, thymidine (40 µg ml^−1) and kanamycin (40 µg ml^−1) were added to the growth medium. The cells were then harvested and washed two times with M9 medium to remove the remaining thymidine. The cells were diluted to an OD600 of approximately 0.1 using M9 medium and 1 ml of cell suspension was transferred to 24-well microplates (Nunc). Compounds were dissolved in DMSO and were added at indicated concentrations. No cells and DMSO-only controls were included for each medium composition. The plates were closed with plastic lids and incubated at 37°C with shaking at 160 r.p.m. After 24 h of incubation, 100 µl of 10-fold serial dilutions were plated onto LB plates or LB plates supplemented with kanamycin (40 µg ml^−1) when appropriate. Colonies were enumerated after overnight incubation at 37°C. Colony-forming units (CFU) per millilitre for each growth condition were determined from three independent experiments.

[9] = tested on: C. trachomatis ThyX; test: ThyX activity with isolated C. trachomatis ThyX; type: biochemical, Chlamydia trachomatis
[10] = target: T2, H. pylori ThyX (Helicobacter pylori, UniProt O26061); type: biochemical
T2 construct: made in house; host or cells: E. coli BL21
T2 sequence (O26061 1-208): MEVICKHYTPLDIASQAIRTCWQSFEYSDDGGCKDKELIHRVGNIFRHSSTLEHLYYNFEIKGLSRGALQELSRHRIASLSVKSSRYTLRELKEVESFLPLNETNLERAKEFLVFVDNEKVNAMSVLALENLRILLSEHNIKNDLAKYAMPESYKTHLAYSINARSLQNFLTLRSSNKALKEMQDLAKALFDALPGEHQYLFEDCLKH

[11] = tested on: E. coli MG1655 (wild-type, thyA+ tdk+); test: Growth inhibition (CFU) of isogenic wild-type E. coli; conditions: Escherichia coli, MG1655, 24 h, read-out: growth inhibition
Procedure: as §1

[12] = target: T3, human thymidylate synthase (Homo sapiens, UniProt P04818); test: Human thymidylate synthase activity; type: biochemical; conditions: data not shown
T3 construct: made in house; host or cells: E. coli BL21
T3 sequence (P04818 whole entry): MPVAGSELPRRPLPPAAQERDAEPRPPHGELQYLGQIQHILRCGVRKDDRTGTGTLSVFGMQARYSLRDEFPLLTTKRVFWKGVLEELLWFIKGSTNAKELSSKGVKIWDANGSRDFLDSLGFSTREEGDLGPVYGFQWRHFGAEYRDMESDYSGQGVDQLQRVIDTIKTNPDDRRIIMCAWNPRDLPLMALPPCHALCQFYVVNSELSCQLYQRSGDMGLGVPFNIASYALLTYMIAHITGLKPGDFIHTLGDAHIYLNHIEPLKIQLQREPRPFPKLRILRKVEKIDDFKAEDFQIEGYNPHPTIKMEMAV

[13] = target: T4, M. tuberculosis ThyX (Mycobacterium tuberculosis, UniProt P9WG57); type: biochemical
T4 construct: made in house; host or cells: E. coli BL21
T4 sequence (P9WG57 whole entry): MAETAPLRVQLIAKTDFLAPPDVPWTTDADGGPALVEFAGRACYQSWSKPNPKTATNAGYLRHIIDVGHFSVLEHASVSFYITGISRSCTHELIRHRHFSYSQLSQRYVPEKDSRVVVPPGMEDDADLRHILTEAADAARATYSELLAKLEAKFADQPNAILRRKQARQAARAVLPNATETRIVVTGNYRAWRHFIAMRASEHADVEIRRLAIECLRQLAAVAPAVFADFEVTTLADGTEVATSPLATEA

[14] = 10 µM total PBCV-1 ThyX, 5 µM dUMP, 200 µM NADPH, read-out: IC50 (µM) NADPH oxidation

O=c1ccn([C@H]2C[C@H](O)[C@@H](COP(=O)(O)O)O2)c(=O)[nH]1 [dUMP, 2′-deoxyuridine-5′-monophosphate, reference compound]
activating factor of NAD(P)H oxidase activity [1]: > 20 | FAD reduction (nmol) [2]: 8.9^a nmol | NADPH oxidation [2]: 11.3 nmol | activating factor of NAD(P)H oxidase activity [3]: 5–7

Cc1ccc(C(=O)CC2=C(O)C(=O)c3ccccc3C2=O)cc1 [F3-C1, 2-hydroxy-3-(2-oxo-2-p-tolylethyl)-1,4-naphthoquinone]
inhibition at 20 µM [4]: 38 ± 7% | IC50 [5, 14]: 7 µM

COc1ccc(C(=O)CC2=C(O)C(=O)c3ccccc3C2=O)cc1 [G3-C1, 2-hydroxy-3-(2-(4-methoxyphenyl)-2-oxoethyl)-1,4-naphthoquinone]
inhibition at 20 µM [4]: 22 ± 7% | IC50 [5, 14]: 10 µM

O=C(O)c1ccccc1NC1=CC(=O)c2c(O)cccc2C1=O [B3-C1, 2-(5-hydroxy-1,4-dioxo-1,4-dihydronaphthalen-2-ylamino)benzoic acid]
inhibition at 20 µM [4]: 12 ± 6% | IC50 [5, 14]: > 10 µM

O=C(CC1=C(O)C(=O)c2ccccc2C1=O)c1ccccc1 [E11-C1, 2-hydroxy-3-(2-oxo-2-phenylethyl)-1,4-naphthoquinone]
inhibition at 20 µM [4]: 36 ± 5% | IC50 [5, 14]: 11 µM

COc1ccc(CC2=C(O)C(=O)c3ccccc3C2=O)cc1 [C8-C1, 2-hydroxy-3-(4-methoxybenzyl)-1,4-naphthoquinone]
Kd [6]: ~0.4 µM | effect of ThyX overexpression on growth inhibition (selectivity factor) ([7]; 50 μg ml−1, with vs without IPTG induction): less-potent growth inhibition | FAD reduction (nmol) [2]: 0^b nmol | NADPH oxidation [2]: 0 nmol | inhibition at 20 µM [4]: 78 ± 4% | IC50 [5]: 4.5 µM | inhibition modality with respect to NADPH ([5]; IC50 plotted against NADPH concentration): tight-binding uncompetitive inhibition | inhibition modality with respect to dUMP ([5]; IC50 plotted against dUMP concentration): tight-binding competitive inhibitor | Ki ([5]; Ki after correcting for total enzyme and dUMP concentration, competitive with respect to dUMP): 0.46 µM | Ki ([5]; apparent Ki (Morrison equation), with respect to dUMP, uncorrected): 1.5 µM | Ki (uncompetitive, NADPH) ([5]; with respect to NADPH): 4.45 µM

O=C(CC1=C(O)C(=O)c2ccccc2C1=O)c1cccs1 [H3-C1, 2-hydroxy-3-(2-oxo-2-(thiophen-2-yl)ethyl)-1,4-naphthoquinone]
inhibition at 20 µM [4]: 38 ± 3% | IC50 [5, 14]: 7 µM

O=C1C=C(Br)C(=O)c2c(O)cccc21 [2E04, 2-bromo-8-hydroxy-1,4-naphthoquinone]
growth inhibition after addition of thymidine to the growth medium ([8]; 1.5 μg ml−1, thymidine added): reversed | inhibition at 1.5 µg/mL ([8]; Escherichia coli, 24 h, read-out: inhibition of bacterial growth): ~80% | effect of ThyX overexpression on growth inhibition (selectivity factor) ([7]; 1.5 μg ml−1, with vs without IPTG induction): less-potent growth inhibition | effect on ThyX activity [9]: specifically decreased the activity | effect on ThyX activity [10]: specifically decreased the activity | inhibition at 1.5 µg/mL [11]: 10 to 15% | inhibitory effect on human thymidylate synthase [12]: No inhibitory effect | effect on ThyX activity [13]: specifically decreased the activity
